One data set is described as follows: physchem. Particulars: for Aqueous drug concentration, 10% RUBUSOSIDE: Table 8, 10% w/v rubusoside (SFA) water solution; for solubility: 25 °C, thermodynamic from solid. On the procedure:
Solubility test methods: A compound with low solubility was selected and weighed into multiple centrifuge tubes. Each experimental tube received a known amount of the solubilizing agent being tested. The control tubes remained only with the compound. The same volume, 1 mL, unless otherwise indicated, of deionized and distilled water was added to each tube. Alternatively, a set percentage of water solutions containing the solubilizer to be tested (e.g., 5% w/v or 10% w/v) were prepared separately. In these cases, the solubilizer-water solutions were added directly to the tubes containing the low-solubility compound. The tubes were then vortexed briefly and then sonicated for 60 min at temperature of 50° C. unless otherwise indicated. After sonication, the tubes were placed on an orbital shaker at a speed of 80 rpm in an incubator set at 25° C. for at least 24 hr. The tubes were then centrifuged at 4000 rpm for 10 min. The supernatant solution was passed through a 0.2 μm or 0.45 μm filter and analyzed for the concentration of the low-solubility compound, and sometimes the solubilizing compound, by HPLC or UV-Vis spectrophotometer.
The system was computer controlled, and the results were analyzed using Empower software. Calibrations curves were constructed using known concentrations of the compounds and were used to quantify the concentrations of the compounds dissolved in solution. A more complete description of the HPLC procedure for some of the diterpene glycosides is found in G. Chou et al., “Quantitative and fingerprint analyses of Chinese sweet tea plant (Rubus suavissimus S. Lee),” J. Agric. Food Chem., vol.
The ratio of peak areas was used to calculate the increase in water solubility in the absence or presence of solubilizers.

The conditions of data set [1]: Table 8; without rubusoside; same values as published ones of Table 1; cited from earlier work.
The mark [2] stands for this setting: aqueous with cosolvent or surfactant or cyclodextrin, Solubility in water with solubilizer.

Converted amounts (≈) assume the structure as drawn.

As to `Cc1c(C)c2c(c(C)c1O)CC[C@@](C)(CCC[C@H](C)CCC[C@H](C)CCCC(C)C)O2` [Alpha-Tocopherol (VE), Alpha-tocopherol], in “physchem”, the “Solubility in water with solubilizer” value is 13,250 μg/mL and the Solubility increase factor result was “Many”.
For `C[C@@H]1[C@H](O)[C@@H](C)/C=C/C=C/C=C/C=C/C=C/C=C/C=C/[C@H](O[C@@H]2O[C@H](C)[C@@H](O)[C@H](N)[C@@H]2O)C[C@@H]2O[C@](O)(C[C@@H](O)C[C@@H](O)[C@H](O)CC[C@@H](O)C[C@@H](O)CC(=O)O[C@H]1C)C[C@H](O)[C@H]2C(=O)O` [Amphotericin B, reference compound], in the data set “physchem”, the “Aqueous drug concentration, 10% RUBUSOSIDE” value was 200 µg/mL. Besides, the “Aqueous drug concentration, AQUEOUS SOLUTION” value in data set [1] was 82 µg/mL.
In general, solubility refers to the dissolved amount per volume that the medium holds. Low readings indicate a poorly soluble substance, high ones a readily soluble substance. On to `C[C@@H]1CC[C@H]2[C@@H](C)C(=O)O[C@@H]3O[C@@]4(C)CC[C@@H]1[C@]32OO4` [Artemisinin, reference compound], for which, in “physchem”, the Solubility increase factor came to 5. Further, the solubility in “physchem” (setting [2]) was found to be 280 µg/mL (≈ 992 µM).
Take `COc1cc(CNC(=O)CCCC/C=C/C(C)C)ccc1O` [Capsaicin, reference compound]: in the data set “physchem”, the “Concentration in water without rubusoside (control sample)” value was 57 µg/mL and the Solubility increase factor came to 86. In addition, the “Concentration dissolved in rubusoside water solution” value in “physchem” (20 mg rubusoside in 1 ml water) was 589 µg/mL. The compound also yielded a solubility in the data set “physchem” (aqueous with cosolvent or surfactant or cyclodextrin, Solubility in water with solubilizer, natural solubilizer (rubusoside) 10% w/v (100 mg in 1 ml)) of 4920 µg/mL (≈ 16100 µM). The concentration in solution in the data set “physchem” (water, Solubility) (solubility) was 57 µg/mL (≈ 187 µM).
For `Cc1ccc(-c2cc(C(F)(F)F)nn2-c2ccc(S(N)(=O)=O)cc2)cc1` [Celecoxib, reference compound], in the data set “physchem”, the “Concentration in water without rubusoside (control sample)” value is “not detected” and the Solubility increase factor entry is given as “Many”. For the same compound, the solubility in the data set “physchem” (setting [2]) was 488 µg/mL (≈ 1280 µM).
`COC1=C(OC)C(=O)C(C/C=C(\C)CC/C=C(\C)CC/C=C(\C)CC/C=C(\C)CC/C=C(\C)CC/C=C(\C)CC/C=C(\C)CC/C=C(\C)CC/C=C(\C)CCC=C(C)C)=C(C)C1=O` [Coenzyme Q10]: in “physchem”, the “Solubility in water with solubilizer” value was 111 µg/mL and the Solubility increase factor amounted to 1110. Further, the concentration in solution in “physchem” (setting [2]) (solubility) was 111 µg/mL (≈ 129 µM).
Compound `CC[C@H]1OC(=O)[C@H](C)[C@@H](O[C@H]2C[C@@](C)(OC)[C@@H](O)[C@H](C)O2)[C@H](C)[C@@H](O[C@@H]2O[C@H](C)C[C@H](N(C)C)[C@H]2O)[C@](C)(O)C[C@@H](C)C(=O)[C@H](C)[C@@H](O)[C@]1(C)O` [Erythromycin, reference compound] had a Solubility increase factor in the data set “physchem” of 11. Moreover, the concentration in solution in “physchem” (setting [2]) (solubility) came to 5330 µg/mL (≈ 7270 µM).
`O=C(O)c1cc(O)c(O)c(O)c1` [Gallic acid]: in “physchem”, the Solubility increase factor amounted to 9.6. Also, the “Amount dissolved in 1 ml water” value in the data set “physchem” (400 mg rubusoside, 25° C.) turned out to be 106 mg. Further, in “physchem” (800 mg rubusoside, 37° C.), the “Amount dissolved in 1 ml water” value is 212 mg and the “Fold increase over amount dissolved in plain water” value is on record as 19.3 fold. The same compound came in with a solubility in the data set “physchem” (setting [2]) of 106000 µg/mL (≈ 623000 µM).
In the case of `CCC(C)n1ncn(-c2ccc(N3CCN(c4ccc(OCC5COC(Cn6cncn6)(c6ccc(Cl)cc6Cl)O5)cc4)CC3)cc2)c1=O` (stereo not shown) [Itraconazole, reference compound], in the data set “physchem”, the “Concentration in water without rubusoside (control sample)” value is reported as “not detected”, the “Solubility in water with solubilizer” value was 21 µg/mL and the Solubility increase factor entry was “Many”.
Turning to `C[C@@H]1[C@H](O)[C@@H](C)/C=C/C=C/CC/C=C/C=C/C=C/C=C/C(O[C@H]2O[C@H](C)[C@@H](O)[C@H](N)[C@@H]2O)CC2O[C@](O)(CC(O)C(O)CCC(O)CC(O)CC(O)CC(=O)O[C@H]1C)CC(O)C2C(=O)O` (stereo partly shown) [Nystatin, reference compound], the “Aqueous drug concentration, 10% RUBUSOSIDE” value in the data set “physchem” is 1,100 μg/ml. Also, the “Aqueous drug concentration, AQUEOUS SOLUTION” value in data set [1] is 66 µg/mL.
Take `CC(C)c1cccc(C(C)C)c1O` [Propofol, reference compound]: in the data set “physchem”, the “Concentration in water without rubusoside (control sample)” value is reported as “no measurable propofol” and the Solubility increase factor was 74. The solubility in “physchem” (setting [2]) was determined as 11700 µg/mL (≈ 65600 µM).
With `COc1cc(C2Oc3cc([C@H]4Oc5cc(O)cc(O)c5C(=O)[C@@H]4O)ccc3OC2CO)ccc1O` (stereo partly shown) [Silybin (Silibinin), Silybin], the Solubility increase factor entry in the data set “physchem” is recorded as “Many”. Also, in the data set “physchem” (setting [2]), the solubility is 150 µg/mL (≈ 311 µM).

Source of the values: patent US20110033525A1, “Diterpene Glycosides as Natural Solubilizers” (priority 2008, published 2011).
